According to ChEMBL document CHEMBL1155745, “Constituents of the root bark of Severinia buxifolia collected in Hainan” (2001):
Converted amounts (≈) assume the structure as drawn. The source made the active and inactive calls. The rule behind the calls is not given here.

Assays:
COLO 205 = test: Cytotoxicity against human COLO205 cells; assay type: functional; conditions: for EC50: read-out: ED50 (the source's name)
[1] = (§1) Cytotoxicity against human Hep3B cells; assay type: functional, Hep 3B2; conditions: read-out: ED50 (the source's name)
KB = test: Cytotoxicity against human KB cells; assay type: functional; conditions: for EC50: read-out: ED50 (the source's name)
Hep 3B2 = test: as §1; assay type: functional

Structure (SMILES) | ED50 (COLO 205) | EC50 [1] [µg/mL] | EC50 (KB) [µg/mL] | EC50 (COLO 205) [µg/mL] | ED50 (Hep 3B2) | ED50 (KB)
COc1c(O)ccc2c(=O)c3c(O)cc(O)c(OC)c3n(C)c12 | inactive | 5.3 (≈ 16.7 µM) | 0.22 (≈ 0.693 µM) | – | – | –
COc1c(/C=C/C(C)C)c(O)c2c(=O)c3cccc(O)c3[nH]c2c1CC=C(C)C | – | – | – | 1.2 (≈ 3.05 µM) | inactive | inactive
CC(C)=CCc1c2c(c(O)c3c(=O)c4ccccc4[nH]c13)C=CC(C)(C)O2 | – | – | – | 0.58 (≈ 1.6 µM) | inactive | inactive
COc1c(O)cc(O)c2c(=O)c3cccc(O)c3n(C)c12 [CITRUSININE-II] | inactive | – | 0.82 (≈ 2.85 µM) | – | inactive | –
COc1cc(O)c2c(=O)c3cccc(O)c3n(C)c2c1OC [CITRUSININE-I] | – | 6.6 (≈ 21.9 µM) | 0.09 (≈ 0.299 µM) | 6.3 (≈ 20.9 µM) | – | –
CC(C)=CCc1c2c(c3[nH]c4ccccc4c(=O)c3c1O)C=CC(C)(C)O2 [SEVERIFOLINE] | inactive | – | 0.09 (≈ 0.249 µM) | – | inactive | –
